Source: patent publication US20220281848A1, “PYRAZOLE-SUBSTITUTED PYRROLIDINONES AS HERBICIDES” (FMC Corporation, priority 2019, published 2022)

Experiments:
Assay type in all cases: in vivo
[1] = system: giant foxtail (Setaria faberi, SETFA); test: Test A pre-emergence, giant foxtail; conditions: after 13 d
How it was run: (§1)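 Damage rated 0–100 (100 = total) 13 d after spraying. Application was one day post-sowing at 15.625, 62.5 or 250 g/ha, formulated in 50:50 acetone/water plus 0.5% Tween 20. Pots held in glasshouse at 24/16 °C day/night, 14 h light, 65% humidity, watered twice daily.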

[2] = system: ivy-leaved morning glory (Ipomoea hederacea, IPOHE); test: Test A pre-emergence, ivy-leaved morning glory; conditions: after 13 d
How it was run: as §1

[3] = system: velvetleaf (Abutilon theophrasti, ABUTH); test: Test A pre-emergence, velvetleaf; conditions: after 13 d
How it was run: as §1

[4] = system: redroot pigweed (Amaranthus retroflexus, AMARE); test: Test A post-emergence, redroot pigweed; conditions: after 13 d
How it was run: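 Post-emergence spray at 8 d after sowing; doses 15.625, 62.5 or 250 g/ha in acetone/water 50:50 + 0.5% Tween 20. Glasshouse 24/16 °C, 14 h light, 65% RH, watered twice daily. Visual damage rating 0–100 at 13 d.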

maize = test: Test D post-emergence, maize seed treated with a herbicide safener
Method: A formulation containing 50 g/L of the test chemical was prepared by dissolving the active ingredient in a mixture of organic solvents and emulsifier, details of which are provided in the table. This formulation was then mixed with a small, variable amount of acetone to aid dissolution, before addition of a 0.2% v/v aqueous solution of an adjuvant, as the aqueous diluent, to form an aqueous spray solution which contains a predetermined concentration of the active ingredient.
This aqueous spray solution was then sprayed onto plants including maize and wheat that had been seed treated with a herbicide safener, after one day's cultivation (for pre-emergence) or after about 12 days' cultivation (for post-emergence). The plants were grown from seeds sown in standard soil, placed in a glasshouse under controlled conditions (at 24/18° C. or 20/16° C., day/night; 16 h light; 65% humidity). After spray application the plants were then grown in a glasshouse under the same conditions and watered twice daily. After 15 d for post-emergence and 20 DAA for pre-emergence the test was evaluated (100=total damage to plant; 0=no damage to plant).

CN1CC(c2cc(C(F)(F)F)n(C)n2)C(C(=O)Nc2ccc(F)cc2C(C)(F)F)C1=O (racemic) [Compound 26]
damage to plant (100=total damage; 0=no damage) SETFA ([1]; Pre-Emergence at 62.5 g/ha): 90
damage to plant (100=total damage; 0=no damage) SETFA ([1]; Pre-Emergence at 250 g/ha): 90
damage to plant (100=total damage; 0=no damage) IPOHE ([2]; Pre-Emergence at 62.5 g/ha): 30
damage to plant (100=total damage; 0=no damage) IPOHE ([2]; Pre-Emergence at 250 g/ha): 70
damage to plant (100=total damage; 0=no damage) ABUTH ([3]; Pre-Emergence at 62.5 g/ha): 0
damage to plant (100=total damage; 0=no damage) ABUTH ([3]; Pre-Emergence at 250 g/ha): 0
damage to plant (100=total damage; 0=no damage) AMARE ([4]; Post-Emergence at 62.5 g/ha): 0
damage to plant (100=total damage; 0=no damage) AMARE ([4]; Post-Emergence at 250 g/ha): 0
damage to plant (100=total damage to plant; 0=no damage to plant), ZEAMX (maize; rate 130, evaluated after 15 d): 0
damage to plant (100=total damage to plant; 0=no damage to plant), ZEAMX (maize; rate 250, evaluated after 15 d): 0
damage to plant (100=total damage to plant; 0=no damage to plant), ZEAMX (maize; rate 500, evaluated after 15 d): 10

CN1CC(c2cc(C(F)(F)F)n(C)n2)C(C(=O)Nc2ccc(F)nc2F)C1=O (racemic) [Compound 22]
damage to plant (100=total damage; 0=no damage) SETFA ([1]; Pre-Emergence at 15.625 g/ha): 80
damage to plant (100=total damage; 0=no damage) SETFA ([1]; Pre-Emergence at 62.5 g/ha): 90
damage to plant (100=total damage; 0=no damage) SETFA ([1]; Pre-Emergence at 250 g/ha): 90
damage to plant (100=total damage; 0=no damage) IPOHE ([2]; Pre-Emergence at 15.625 g/ha): 0
damage to plant (100=total damage; 0=no damage) IPOHE ([2]; Pre-Emergence at 62.5 g/ha): 0
damage to plant (100=total damage; 0=no damage) IPOHE ([2]; Pre-Emergence at 250 g/ha): 0
damage to plant (100=total damage; 0=no damage) ABUTH ([3]; Pre-Emergence at 15.625 g/ha): 0
damage to plant (100=total damage; 0=no damage) ABUTH ([3]; Pre-Emergence at 62.5 g/ha): 0
damage to plant (100=total damage; 0=no damage) ABUTH ([3]; Pre-Emergence at 250 g/ha): 0
damage to plant (100=total damage; 0=no damage) AMARE ([4]; Post-Emergence at 15.625 g/ha): 0
damage to plant (100=total damage; 0=no damage) AMARE ([4]; Post-Emergence at 62.5 g/ha): 0
damage to plant (100=total damage; 0=no damage) AMARE ([4]; Post-Emergence at 250 g/ha): 0
damage to plant (100=total damage to plant; 0=no damage to plant), ZEAMX (maize; rate 130, evaluated after 15 d): 0
damage to plant (100=total damage to plant; 0=no damage to plant), ZEAMX (maize; rate 250, evaluated after 15 d): 0
damage to plant (100=total damage to plant; 0=no damage to plant), ZEAMX (maize; rate 500, evaluated after 15 d): 20

CN1CC(c2cc(C(F)(F)F)n(C)n2)C(C(=O)Nc2cccc(F)c2C(F)(F)F)C1=O (racemic) [Compound 19]
damage to plant (100=total damage; 0=no damage) SETFA ([1]; Pre-Emergence at 15.625 g/ha): 80
damage to plant (100=total damage; 0=no damage) SETFA ([1]; Pre-Emergence at 62.5 g/ha): 90
damage to plant (100=total damage; 0=no damage) SETFA ([1]; Pre-Emergence at 250 g/ha): 90
damage to plant (100=total damage; 0=no damage) IPOHE ([2]; Pre-Emergence at 15.625 g/ha): 0
damage to plant (100=total damage; 0=no damage) IPOHE ([2]; Pre-Emergence at 62.5 g/ha): 0
damage to plant (100=total damage; 0=no damage) IPOHE ([2]; Pre-Emergence at 250 g/ha): 10
damage to plant (100=total damage; 0=no damage) ABUTH ([3]; Pre-Emergence at 15.625 g/ha): 0
damage to plant (100=total damage; 0=no damage) ABUTH ([3]; Pre-Emergence at 62.5 g/ha): 0
damage to plant (100=total damage; 0=no damage) ABUTH ([3]; Pre-Emergence at 250 g/ha): 0
damage to plant (100=total damage; 0=no damage) AMARE ([4]; Post-Emergence at 15.625 g/ha): 0
damage to plant (100=total damage; 0=no damage) AMARE ([4]; Post-Emergence at 62.5 g/ha): 0
damage to plant (100=total damage; 0=no damage) AMARE ([4]; Post-Emergence at 250 g/ha): 30
damage to plant (100=total damage to plant; 0=no damage to plant), ZEAMX (maize; rate 130, evaluated after 15 d): 0
damage to plant (100=total damage to plant; 0=no damage to plant), ZEAMX (maize; rate 250, evaluated after 15 d): 0
damage to plant (100=total damage to plant; 0=no damage to plant), ZEAMX (maize; rate 500, evaluated after 15 d): 30

CN1C[C@H](c2nn(C)c3c(F)cccc23)[C@@H](C(=O)Nc2cccc(F)c2F)C1=O [Compound 2]
damage to plant (100=total damage; 0=no damage) SETFA ([1]; Pre-Emergence at 15.625 g/ha): 90
damage to plant (100=total damage; 0=no damage) SETFA ([1]; Pre-Emergence at 62.5 g/ha): 90
damage to plant (100=total damage; 0=no damage) SETFA ([1]; Pre-Emergence at 250 g/ha): 90
damage to plant (100=total damage; 0=no damage) IPOHE ([2]; Pre-Emergence at 15.625 g/ha): 0
damage to plant (100=total damage; 0=no damage) IPOHE ([2]; Pre-Emergence at 62.5 g/ha): 0
damage to plant (100=total damage; 0=no damage) IPOHE ([2]; Pre-Emergence at 250 g/ha): 0
damage to plant (100=total damage; 0=no damage) ABUTH ([3]; Pre-Emergence at 15.625 g/ha): 0
damage to plant (100=total damage; 0=no damage) ABUTH ([3]; Pre-Emergence at 62.5 g/ha): 0
damage to plant (100=total damage; 0=no damage) ABUTH ([3]; Pre-Emergence at 250 g/ha): 0
damage to plant (100=total damage; 0=no damage) AMARE ([4]; Post-Emergence at 15.625 g/ha): 0
damage to plant (100=total damage; 0=no damage) AMARE ([4]; Post-Emergence at 62.5 g/ha): 0
damage to plant (100=total damage; 0=no damage) AMARE ([4]; Post-Emergence at 250 g/ha): 0
damage to plant (100=total damage to plant; 0=no damage to plant), ZEAMX (maize; rate 130, evaluated after 15 d): 0
damage to plant (100=total damage to plant; 0=no damage to plant), ZEAMX (maize; rate 250, evaluated after 15 d): 0
damage to plant (100=total damage to plant; 0=no damage to plant), ZEAMX (maize; rate 500, evaluated after 15 d): 20

COc1c(F)cccc1NC(=O)C1C(=O)N(C)CC1c1cc(C(F)(F)F)n(C)n1 (racemic) [Compound 18]
damage to plant (100=total damage; 0=no damage) SETFA ([1]; Pre-Emergence at 15.625 g/ha): 90
damage to plant (100=total damage; 0=no damage) SETFA ([1]; Pre-Emergence at 62.5 g/ha): 90
damage to plant (100=total damage; 0=no damage) SETFA ([1]; Pre-Emergence at 250 g/ha): 90
damage to plant (100=total damage; 0=no damage) IPOHE ([2]; Pre-Emergence at 15.625 g/ha): 10
damage to plant (100=total damage; 0=no damage) IPOHE ([2]; Pre-Emergence at 62.5 g/ha): 10
damage to plant (100=total damage; 0=no damage) IPOHE ([2]; Pre-Emergence at 250 g/ha): 20
damage to plant (100=total damage; 0=no damage) ABUTH ([3]; Pre-Emergence at 15.625 g/ha): 0
damage to plant (100=total damage; 0=no damage) ABUTH ([3]; Pre-Emergence at 62.5 g/ha): 0
damage to plant (100=total damage; 0=no damage) ABUTH ([3]; Pre-Emergence at 250 g/ha): 0
damage to plant (100=total damage; 0=no damage) AMARE ([4]; Post-Emergence at 15.625 g/ha): 0
damage to plant (100=total damage; 0=no damage) AMARE ([4]; Post-Emergence at 62.5 g/ha): 0
damage to plant (100=total damage; 0=no damage) AMARE ([4]; Post-Emergence at 250 g/ha): 0
damage to plant (100=total damage to plant; 0=no damage to plant), ZEAMX (maize; rate 130, evaluated after 15 d): 0
damage to plant (100=total damage to plant; 0=no damage to plant), ZEAMX (maize; rate 250, evaluated after 15 d): 0
damage to plant (100=total damage to plant; 0=no damage to plant), ZEAMX (maize; rate 500, evaluated after 15 d): 10
